Experimental data taken from ChEMBL document CHEMBL5055671, “Targeting a Novel KRAS Binding Site: Application of One-Component Stapling of Small (5-6-mer) Peptides” (J Med Chem, 2021).
pIC50: −log10 of the molar value.

Tests used:
GTPase KRas = GTPase KRas (Homo sapiens, UniProt P01116, G12V); test: Inhibition of alexa fluor 647-labeled kinase tracer 314 binding to biotinylated-KRAS G12V mutant (unknown origin) measured after 60 mins by HTRF competition binding assay; conditions: read-out: IC50
[1] = test system: GTPase KRas (Homo sapiens), P01116 [G12V]; test: Inhibition of alexa fluor 647-labeled kinase tracer 314 binding to biotinylated-KRAS G12V mutant (unknown origin) at 100 uM measured after 60 mins by HTRF competition binding assay
[2] = Inhibition of GDP-tagged biotinylated KRas G12C mutant (unknown origin)/GST-Raf (unknown origin) assessed as SOS-mediated nucleotide exchange measured after 1 hr by HRTF assay; set-up: species or system Homo sapiens

SMILES	pIC50 (GTPase KRas)	inhibition [1] [%]	pIC50 [2]
CC[C@H](C)[C@@H]1NC(=O)[C@@H]2CCCN2C(=O)[C@H](C)NC(=O)c2ccccc2/C=C/COC[C@@H](C(=O)N[C@@H](CC(C)C)C(N)=O)NC1=O	< 4.00	25	
C=C1/C=C/COC[C@@H](C(=O)N[C@@H](CC(C)C)C(N)=O)NC(=O)[C@H]([C@@H](C)CC)NC(=O)[C@@H]2CCCN2C(=O)CNC(=O)CC1	< 4.00	21	
C=C1/C=C/CCCC(=O)N[C@@H](C)C(=O)N2CCC[C@H]2C(=O)N[C@@H]([C@@H](C)CC)C(=O)N[C@H](C(=O)N[C@@H](CC(C)C)C(N)=O)CSC1	< 4.00	28	
CC[C@H](C)[C@@H]1NC(=O)[C@@H]2CCCN2C(=O)[C@H](C)NC(=O)CCCC#CC#CCOC[C@@H](C(=O)N[C@@H](CC(C)C)C(N)=O)NC1=O	< 4.00	0	
CC(C)C[C@H](NC(=O)[C@@H]1COCc2cnnn2CCCCC(=O)NCC(=O)N2CCOC[C@H]2C(=O)N[C@@H](Cc2cccc3ccccc23)C(=O)N1)C(N)=O	5.19		5.30
CC[C@H](C)[C@@H]1NC(=O)[C@@H]2CCCN2C(=O)CNC(=O)CCCc2cnnn2CC[C@@H](C(=O)N[C@@H](CC(C)C)C(N)=O)NC1=O	< 4.00	22	
CC[C@H](C)[C@@H]1NC(=O)[C@@H]2CCCN2C(=O)[C@H](Cc2ccc(O)cc2)NC(=O)CCCCn2cc(nn2)CSC[C@@H](C(=O)N[C@@H](CC(C)C)C(N)=O)NC1=O	< 4.00	0	< 4.52
CC[C@H](C)[C@@H]1NC(=O)[C@@H]2CCCN2C(=O)CNC(=O)CCCc2cn(nn2)CC[C@@H](C(=O)N[C@@H](CC(C)C)C(N)=O)NC1=O	< 4.00	6	
CC(C)C[C@H](NC(=O)[C@@H]1COCc2cnnn2CCCC(=O)NCC(=O)N2CCC[C@H]2C(=O)N[C@@H](Cc2cccc3ccccc23)C(=O)N1)C(N)=O	5.00		5.39
CC[C@H](C)[C@@H]1NC(=O)[C@@H]2CCCN2C(=O)[C@H](C)NC(=O)CCCCn2nncc2COC[C@@H](C(=O)N[C@@H](CC(C)C)C(N)=O)NC1=O	< 4.00	30	
C=C1/C=C/COC[C@@H](C(=O)N[C@@H](CC(C)C)C(N)=O)NC(=O)[C@H]([C@@H](C)CC)NC(=O)[C@@H]2CCCN2C(=O)CNC(=O)C1	4.01	46	
CC[C@H](C)[C@@H]1NC(=O)[C@@H]2CCCN2C(=O)CNC(=O)CCCCn2nncc2COC[C@@H](C(=O)N[C@@H](CC(C)C)C(N)=O)NC1=O	4.00	48	
CC[C@H](C)[C@@H]1NC(=O)[C@@H]2CCCN2C(=O)[C@H](Cc2ccc(O)cc2)NC(=O)CCCCn2cc(nn2)COC[C@@H](C(=O)N[C@@H](CC(C)C)C(N)=O)NC1=O	< 4.00	22	< 4.52
CC[C@H](C)[C@@H]1NC(=O)[C@@H]2CCCN2C(=O)CNC(=O)CCCn2nncc2COC[C@@H](C(=O)N[C@@H](CC(C)C)C(N)=O)NC1=O	< 4.00	39	
CC[C@H](C)[C@@H]1NC(=O)[C@@H]2CCCN2C(=O)CNC(=O)CCCc2cnnn2C[C@@H](C(=O)N[C@@H](CC(C)C)C(N)=O)NC1=O	< 4.00	16	
CC(C)C[C@H](NC(=O)[C@H]1CSCc2cnnn2CCCCC(=O)NCC(=O)N2CCC[C@H]2C(=O)N[C@@H](Cc2cccc3ccccc23)C(=O)N1)C(N)=O	4.96		5.60
CC[C@H](C)[C@@H]1NC(=O)[C@@H]2CCCN2C(=O)[C@H](C)NC(=O)CCC/C=C/COC[C@@H](C(=O)N[C@@H](CC(C)C)C(N)=O)NC1=O	< 4.00	5	
CC[C@H](C)[C@@H]1NC(=O)[C@@H]2CCCN2C(=O)[C@H](Cc2ccc(O)cc2)NC(=O)CCCCn2nncc2COC[C@@H](C(=O)N[C@@H](CC(C)C)C(N)=O)NC1=O	< 4.00	28	< 4.52
CC(C)C[C@H](NC(=O)[C@@H]1COCc2cnnn2CCC(=O)NCC(=O)N2CCC[C@H]2C(=O)N[C@@H](Cc2cccc3ccccc23)C(=O)N1)C(N)=O	5.15		5.44
CC(C)C[C@H](NC(=O)[C@@H]1COCc2cnnn2CCCCC(=O)NCC(=O)N2CCCC[C@H]2C(=O)N[C@@H](Cc2cccc3ccccc23)C(=O)N1)C(N)=O	5.11		5.62
CC(C)C[C@H](NC(=O)[C@@H]1COCc2cnnn2CCCCC(=O)NCC(=O)N2CCC[C@H]2C(=O)N[C@@H](Cc2cccc3ccccc23)C(=O)N1)C(N)=O	5.15		5.62
CC(C)C[C@H](NC(=O)[C@@H]1COCc2cnnn2CC(=O)NCC(=O)N2CCC[C@H]2C(=O)N[C@@H](Cc2cccc3ccccc23)C(=O)N1)C(N)=O	5.02		5.49
CC[C@H](C)[C@@H]1NC(=O)[C@@H]2CCCN2C(=O)[C@H](Cc2ccc(O)cc2)NC(=O)CCCCn2nncc2CSC[C@@H](C(=O)N[C@@H](CC(C)C)C(N)=O)NC1=O	< 4.00	20	< 4.52
CC[C@H](C)[C@@H]1NC(=O)[C@@H]2CCCN2C(=O)[C@H](Cc2ccc(O)cc2)NC(=O)CCc2cnnn2CC[C@@H](C(=O)N[C@@H](CC(C)C)C(N)=O)NC1=O	< 4.00	44	
CC[C@H](C)[C@@H]1NC(=O)[C@@H]2CCCN2C(=O)[C@H](Cc2ccccc2)NC(=O)CCCCn2nncc2COC[C@@H](C(=O)N[C@@H](CC(C)C)C(N)=O)NC1=O	< 4.00	38	
CC[C@H](C)[C@@H]1NC(=O)[C@@H]2CCCN2C(=O)[C@H](Cc2ccccc2)NC(=O)CCCc2cn(nn2)CC[C@@H](C(=O)N[C@@H](CC(C)C)C(N)=O)NC1=O	< 4.00	9	< 4.52
CC[C@H](C)[C@@H]1NC(=O)[C@@H]2CCCN2C(=O)CNC(=O)CCCC#CC#CCOC[C@@H](C(=O)N[C@@H](CC(C)C)C(N)=O)NC1=O	< 4.00	0	
CC[C@H](C)[C@@H]1NC(=O)[C@@H]2CCCN2C(=O)[C@H](Cc2ccccc2)NC(=O)CCCc2cn(nn2)C[C@@H](C(=O)N[C@@H](CC(C)C)C(N)=O)NC1=O	< 4.00	8	< 4.52
CC(C)C[C@H](NC(=O)[C@@H]1COCc2cnnn2CCCCC(=O)NCC(=O)N2CCC[C@H]2C(=O)N[C@@H](CC(C)C)C(=O)N1)C(N)=O	4.22		
